Measurements published in paper PMC8306930, “A Comparative Analysis of the In Vitro Anticancer Activity of Iridium(III) {η^5-C5Me4R} Complexes with Variable R Groups” (International Journal of Molecular Sciences, 2021).

Tests used:
[1] = Octanol/water partition coefficient, shake-flask method with UV-Vis; settings: 21 °C, mean ± standard deviation
Protocol: (a) Octanol/water partition coefficients (Log Pow). Partition coefficients (Pow; IUPAC: KD partition constant), defined as Pow = corg/caq, where corg and caq are molar concentrations of the selected compound in the organic and aqueous phase, respectively, were determined by the shake-flask method and UV-Vis measurements. Deionized water and 1-octanol were vigorously stirred for 24 h, to enable saturation of both phases, then separated by centrifugation. A stock solution of the selected iridium compound (ca. 2 mg) was prepared by first adding acetone (50 μL, to help solubilization), followed by water-saturated octanol (2.5 mL). The solution was diluted with water-saturated octanol (ca. 1:3 v/v ratio, cIr ≈ 10^−4 M, so that 1.5 ≤ A ≤ 2.0 at λmax) and its UV-Vis spectrum was recorded (A^0org). An aliquot of the solution (Vorg = 1.2 mL) was transferred into a test tube and octanol-saturated water (Vorg = Vaq = 1.2 mL) was added. The mixture was vigorously stirred for 30 min at 21 °C then centrifuged (5000 rpm, 5 min). The UV-Vis spectrum of the organic phase was recorded (A^forg) and the partition coefficient was calculated as Pow = A^forg/(A^0org − A^forg) where A^0org and A^forg are the absorbance in the organic phase before and after partition with the aqueous phase, respectively. The wavelength of the maximum absorption of each compound (ca. 300 nm) was used for UV-Vis quantitation.

[2] = Stability in RPMI-1640 cell culture medium by UV-Vis; assay type: physicochemical; settings: 37 °C, 24 h
B16 mouse melanoma cells [3] = assay: CV (crystal violet) viability assay, B16; assay type: cell-based; settings: B16, 72 h exposure, mean ± SD
Description: (§1) The rat astrocytoma C6 cell line and murine melanoma B16 cell line were kindly gifted by Dr. L. Harhaji–Trajkovic, Institute for Biological Research “Sinisa Stankovic”—National Institute of Republic of Serbia (IBISS), and from Dr. Sinisa Radulovic (Institute for Oncology and Radiology of Serbia), respectively. Human colorectal (SW620 and HCT116), breast (MCF-7), and ovarian (A2780) cancer cell lines and non-malignant fibroblast cell line (MRC5) were purchased from the American Type Culture Collection (ATCC, Manassas, Virginia, USA). […] For viability assays, cells were seeded in listed densities/well: B16 and C6: 3 × 10^3; SW620: 9 × 10^3; A2780 and HCT116: 5 × 10^3; MCF-7: 8 × 10^3 and MRC5: 7 × 10^3. For flow cytometry, A2780 cells were seeded at 2 × 10^5 density/well in 6-well plates. Peritoneal macrophages were collected from the peritoneal cavity of C57BL/6 mice from the animal facility of IBISS by cavity lavage with ice-cold PBS. […] Macrophages were counted, seeded at 2 × 10^5 cells/well in 96-well plates for viability assay, and then left for 2 h to adhere. Before treatment, non-adherent cells were removed. The handling of animals and protocol for obtaining macrophages is in the agreement with the rules of the European Union and approved by the Institutional Animal Care and Use Committee at IBISS (No. 02-09/16).
(§2) Stock solutions of 1b, 1c, 1d, and 1e were prepared in ethanol at concentration of 20 mM and kept at −20 °C, while 10 mM stock solution of cisplatin was prepared in DMF just before the usage. Desired final concentrations were obtained by dilution in culture medium.
(§3) Cells were treated with various concentrations (up to 50 or 100 µM) of the above-mentioned complexes for 72 h. For the detection of mitochondrial respiration, cells were cultivated in the presence of MTT staining solution (0.5 mg/mL) for approximately 1 h at 37 °C. The dye was then discarded, and the formed formazan crystals (purple) were dissolved in DMSO. For an evaluation of viable attached cells, cells were fixed with 4% PFA for 10 min at room temperature, and subsequently stained for 15 min with 0.02% CV solution. […] The absorbance was measured with an automated microplate reader at 540 nm, with a reference wavelength of 670 nm. The IC50 values were calculated using a four-parameter logistic function and presented as mean ± SD from three independent experiments.

C6 rat glioma cells [4] = assay: CV viability assay, C6; assay type: cell-based; settings: C6, 72 h exposure, mean ± SD
Description: as §1, §2, §3

[5] = system: SW620 human colorectal adenocarcinoma cells; assay: CV viability assay, SW620; assay type: cell-based; settings: SW620, 72 h exposure, mean ± SD
Description: as §1, §2, §3

[6] = system: A2780 human ovarian cancer cells; assay: MTT viability assay, A2780; assay type: cell-based; settings: A2780, 72 h exposure, mean ± SD
Description: as §1, §2, §3

B16 mouse melanoma cells [7] = assay: MTT viability assay, B16; assay type: cell-based; settings: B16, 72 h exposure, mean ± SD
Description: as §1, §2, §3

[8] = system: SW620 human colorectal adenocarcinoma cells; assay: MTT viability assay, SW620; assay type: cell-based; settings: SW620, 72 h exposure, mean ± SD
Description: as §1, §2, §3

[9] = system: HCT116 human colorectal carcinoma cells; assay: CV viability assay, HCT116; assay type: cell-based; settings: HCT116, 72 h exposure, mean ± SD
Description: as §1, §2, §3

C6 rat glioma cells [10] = assay: MTT viability assay, C6; assay type: cell-based; settings: C6, 72 h exposure, mean ± SD
Description: as §1, §2, §3

[11] = system: MCF-7 human breast cancer cells; assay: CV viability assay, MCF-7; assay type: cell-based; settings: MCF-7, 72 h exposure, mean ± SD
Description: as §1, §2, §3

[12] = system: HCT116 human colorectal carcinoma cells; assay: MTT viability assay, HCT116; assay type: cell-based; settings: HCT116, 72 h exposure, mean ± SD
Description: as §1, §2, §3

[13] = system: MCF-7 human breast cancer cells; assay: MTT viability assay, MCF-7; assay type: cell-based; settings: MCF-7, 72 h exposure, mean ± SD
Description: as §1, §2, §3

[14] = Stability in D2O mixtures by 1H NMR; assay type: physicochemical; settings: DMSO-d6/D2O 2:1, 72 h at 37 °C, 1H NMR, dimethyl sulfone standard
Protocol: Complexes were dissolved in acetone-d6/D2O 2:1 (1b,d), DMSO-d6/D2O 2:1 (2a–d and 3), or methanol-d4/D2O 2:1 (1c) ([Ir] ≈ 10^−3 mol L^−1), then dimethyl sulfone (0.05 mL, 0.164 mmol) was added as internal standard. The mixtures were filtered through a celite pad, and the filtrated solutions were analyzed by ^1H NMR spectroscopy.
The solutions were then stored for 72 h at 37 °C, and new NMR analyses were subsequently performed.

[15] = system: MRC5 human fibroblast cells; assay: MTT viability assay, MRC5; assay type: cell-based; settings: MRC5, 72 h exposure, mean ± SD
Description: as §1, §2, §3

[16] = system: A2780 human ovarian cancer cells; assay: CV viability assay, A2780; assay type: cell-based; settings: A2780, 72 h exposure, mean ± SD
Description: as §1, §2, §3

[17] = system: MRC5 human fibroblast cells; assay: CV viability assay, MRC5; assay type: cell-based; settings: MRC5, 72 h exposure, mean ± SD
Description: as §1, §2, §3

A2780 cells [18] = assay: ROS/RNS, DHR123 flow cytometry; assay type: cell-based, human; settings: A2780, IC50 doses, 48 h, DHR123, with respect to untreated cultures
Protocol: (§4) Experiments were carried out in three independent replicates.

A2780 cells [19] = assay: Intracellular nitric oxide, DAF-FM flow cytometry; assay type: cell-based, human; settings: A2780, IC50 doses, 48 h, with respect to untreated cultures
Protocol: as §4

A2780 cells [20] = assay: Autophagosomes, acridine orange flow cytometry; assay type: cell-based, human; settings: A2780, IC50 doses, 48 h, AO
Protocol: as §4

A2780 cells [21] = settings: A2780, IC50 doses, 48 h, AnnV/PI
Protocol: as §4

[22] = system: primary mouse peritoneal cells; assay: Viability of primary mouse peritoneal cells (macrophages); assay type: cell-based
Description: The rat astrocytoma C6 cell line and murine melanoma B16 cell line were kindly gifted by Dr. L. Harhaji–Trajkovic, Institute for Biological Research “Sinisa Stankovic”—National Institute of Republic of Serbia (IBISS), and from Dr. Sinisa Radulovic (Institute for Oncology and Radiology of Serbia), respectively. Human colorectal (SW620 and HCT116), breast (MCF-7), and ovarian (A2780) cancer cell lines and non-malignant fibroblast cell line (MRC5) were purchased from the American Type Culture Collection (ATCC, Manassas, Virginia, USA). […] For viability assays, cells were seeded in listed densities/well: B16 and C6: 3 × 10^3; SW620: 9 × 10^3; A2780 and HCT116: 5 × 10^3; MCF-7: 8 × 10^3 and MRC5: 7 × 10^3. For flow cytometry, A2780 cells were seeded at 2 × 10^5 density/well in 6-well plates. […] Macrophages were counted, seeded at 2 × 10^5 cells/well in 96-well plates for viability assay, and then left for 2 h to adhere. […]
Cells were treated with various concentrations (up to 50 or 100 µM) of the above-mentioned complexes for 72 h. […] The absorbance was measured with an automated microplate reader at 540 nm, with a reference wavelength of 670 nm. The IC50 values were calculated using a four-parameter logistic function and presented as mean ± SD from three independent experiments.

A2780 cells [23] = assay: Cell proliferation, CFSE flow cytometry; assay type: cell-based, human; settings: A2780, IC50 doses, 72 h of incubation
Protocol: as §4

A2780 cells [24] = assay: Senescence, FDG assay of beta galactosidase activity, flow cytometry; assay type: cell-based, human; settings: A2780, IC50 doses, 48 h, in comparison to the control
Protocol: as §4

A2780 cells [25] = assay: Mitochondrial membrane potential, DiOC6(3) flow cytometry; assay type: cell-based, human; settings: A2780, IC50 doses, 24 h, in comparison with untreated cells
Protocol: as §4

Row | SMILES | Log Pow [1] | Stability in RPMI-1640 cell culture medium [2] | IC50 (B16 mouse melanoma cells [3]) [µM] | IC50 (C6 rat glioma cells [4]) [µM] | IC50 [5] [µM] | IC50 [6] [µM] | IC50 (B16 mouse melanoma cells [7]) [µM] | IC50 [8] [µM] | IC50 [9] [µM] | IC50 (C6 rat glioma cells [10]) [µM] | IC50 [11] [µM] | IC50 [12] [µM] | IC50 [13] [µM] | Fraction of unaltered compound [14] [%] | IC50 [15] [µM] | IC50 [16] [µM] | IC50 [17] [nM] | other results
1 | CCC[c-]1c(C)c(C)c(C)c1C.[Cl-].[Ir+3].[c-]1ccccc1-c1ccccn1 [Complex 2c, (1-(propyl)-2,3,4,5-tetramethylcyclopentadienyl)(2-phenylpyridine)iridium(III)chloride] | 1.5 ± 0.2 | did not change | 8 ± 2 | 5.9 ± 0.5 | 12.4 ± 1.5 | 7.3 ± 0.6 | 6.7 ± 0.6 | 10.4 ± 0.4 | 13 ± 1.1 | 4 ± 0.3 | 17.2 ± 0.1 | 8 ± 0.6 | 12 ± 1.3 | 98 | 3.7 ± 0.2 | 7.2 ± 0.8 | 2700 ± 100 | –
2 | Cc1c(C)c(C)[c-](-c2ccc(F)cc2)c1C.[Cl-].[Ir+3].[c-]1ccccc1-c1ccccn1 [Complex 2d, (1-(4-fluorobenzene)-2,3,4,5-tetramethylcyclopentadienyl)(2-phenylpyridine)iridium(III)chloride] | 1.3 ± 0.2 | did not change | 1.7 ± 0.4 | 2.1 ± 0.1 | 2 ± 0.2 | 1.3 ± 0.1 | 1.2 ± 0.2 | 2 ± 0.1 | 5.3 ± 1.3 | 2 ± 0.01 | 6.8 ± 0.7 | 1.3 ± 0.3 | 2.5 ± 0.2 | 97 | 2.4 ± 0.3 | 1.8 ± 0.1 | 2100 ± 600 | Increase of intracellular levels of H2O2, HOCl and ONOO− (in total) (A2780 cells [18]): 36.3%; Increase of intracellular level of NO (A2780 cells [19]): 38%; High percentage of autophagosomes (A2780 cells [20]): not recognized; Induction of apoptotic cell death (A2780 cells [21]): modest induction; Effect on viability of primary mouse peritoneal cells [22]: did not affect viability; Effect on cell proliferation (A2780 cells [23]): inhibition of cell proliferation; Increase of beta galactosidase activity (A2780 cells [24]): 31%; Mitochondrial membrane hyperpolarization (A2780 cells [25]): 48.6%
